In patent US12077503B2, “Substituted cyclic amides and their use as herbicides” (FMC CORPORATION, priority 2015, dated 2024):

How the values were obtained:
Assay type in all cases: in vivo
Kochia (Kochia scoparia) = assay: Test A postemergence; conditions: Bassia scoparia, post-emergence, 240 h, postemergence, read-out: Kochia plant response rating
Outline: (§1)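 Ratings of 0 (no effect) to 100 (complete control) come from visual comparison with untreated controls roughly 10 d after treatment. Test chemicals, formulated in a non-phytotoxic solvent mixture with surfactant, were applied either as a preemergence directed soil spray on seeded soil or postemergence to one- to two-leaf plants 2 to 10 cm tall.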

[1] = tested on: blackgrass (Alopecurus myosuroides); assay: Test A postemergence; conditions: Alopecurus myosuroides, post-emergence, 240 h, postemergence, read-out: Blackgrass plant response rating
Outline: as §1

[2] = tested on: Galium (catchweed bedstraw, Galium aparine); assay: Test A postemergence; conditions: Galium, post-emergence, 240 h, postemergence, read-out: Galium plant response rating
Outline: as §1

[3] = tested on: wheat (Triticum aestivum); assay: Test A postemergence; conditions: Triticum aestivum, post-emergence, 240 h, postemergence, read-out: Wheat plant response rating
Outline: as §1

corn (Zea mays) = assay: Test A postemergence; conditions: Zea mays, post-emergence, 240 h, postemergence, read-out: Corn plant response rating
Outline: as §1

[4] = tested on: giant foxtail (Setaria faberii); assay: Test A postemergence; conditions: Setaria faberi, post-emergence, 240 h, postemergence, read-out: Foxtail, Giant plant response rating
Outline: as §1

[5] = tested on: ragweed (common ragweed, Ambrosia elatior); assay: Test A postemergence; conditions: Ambrosia artemisiifolia, post-emergence, 240 h, postemergence, read-out: Ragweed plant response rating
Outline: as §1

[6] = tested on: pigweed (Amaranthus retroflexus); assay: Test A postemergence; conditions: Amaranthus retroflexus, post-emergence, 240 h, postemergence, read-out: Pigweed plant response rating
Outline: as §1

[7] = tested on: barnyardgrass (Echinochloa crus-galli); assay: Test A postemergence; conditions: Echinochloa crus-galli, post-emergence, 240 h, postemergence, read-out: Barnyardgrass plant response rating
Outline: as §1

[8] = tested on: ryegrass, Italian (Italian ryegrass, Lolium multiflorum); assay: Test A postemergence; conditions: Lolium multiflorum, post-emergence, 240 h, postemergence, read-out: Ryegrass, Italian plant response rating
Outline: as §1

[9] = tested on: pigweed (Amaranthus retroflexus); assay: Test A preemergence; conditions: Amaranthus retroflexus, pre-emergence, 240 h, preemergence, 0 to 100 scale where 0 is no effect and 100 is complete control, read-out: Pigweed plant response rating
[10] = tested on: sedge, umbrella (small-flower umbrella sedge, Cyperus difformis); assay: Test B flooded paddy test; conditions: Cyperus difformis, 250 g ai/ha, Flood; 0 to 100 scale where 0 is no effect and 100 is complete control; read-out: Sedge, Umbrella plant response rating
Outline: (§2)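 Compound goes directly into floodwater once pots are flooded 3 cm above soil, targeting plants at two leaves; the water depth is then held for the test duration. Plants sit 13–15 d in a greenhouse and are rated visually, 100 denoting complete control.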

[11] = tested on: ducksalad (Heteranthera limosa); assay: Test B flooded paddy test; conditions: Heteranthera limosa, 250 g ai/ha, Flood; 0 to 100 scale where 0 is no effect and 100 is complete control; read-out: Ducksalad plant response rating
Outline: as §2

[12] = tested on: barnyardgrass (Echinochloa crus-galli); assay: Test B flooded paddy test; conditions: Echinochloa crus-galli, 250 g ai/ha, Flood; 0 to 100 scale where 0 is no effect and 100 is complete control; read-out: Barnyardgrass plant response rating
Outline: as §2

rice (Oryra sativa) = assay: Test B flooded paddy test; conditions: Oryza sativa, 250 g ai/ha, Flood; 0 to 100 scale where 0 is no effect and 100 is complete control; read-out: Rice plant response rating
Outline: as §2

[13] = 125 g ai/ha, visual injury on 0 to 100 scale (0 no effect, 100 complete control), approx. 10 d
[14] = 500 g ai/ha, 0 to 100 scale, 0 is no effect, 100 is complete control

`CN1C[C@H](c2cscn2)[C@@H](C(=O)Nc2cccc(F)c2F)C1=O` [Compound 1113] showed a pest or weed control at 125 g/ha (Kochia (Kochia scoparia); [13]) of 0%, a pest or weed control at 500 g/ha (Kochia (Kochia scoparia); [14]) of 0% and a pest or weed control at 125 g/ha [1, 13] of 0%. The pest or weed control at 500 g/ha [1, 14] was 0%, the pest or weed control at 125 g/ha [2, 13] was 0% and the pest or weed control at 500 g/ha [2, 14] was 0%. The plant injury at 125 g/ha [3, 13] was 0%, the plant injury at 500 g/ha [3, 14] was 0% and the plant injury at 125 g/ha (corn (Zea mays); [13]) was 0%. The plant injury at 500 g/ha (corn (Zea mays); [14]) was 0%, the pest or weed control at 125 g/ha [4, 13] was 0% and the pest or weed control at 500 g/ha [4, 14] was 0%. The pest or weed control at 125 g/ha [5, 13] was 0%, the pest or weed control at 500 g/ha [5, 14] was 0% and the pest or weed control at 125 g/ha [6, 13] was 0%. For the same compound, the pest or weed control at 500 g/ha [6, 14] was 0%, the pest or weed control at 125 g/ha [7, 13] was 0% and the pest or weed control at 500 g/ha [7, 14] was 0%. For the same compound, the pest or weed control at 125 g/ha [8, 13] was 0%, the pest or weed control at 500 g/ha [8, 14] was 0% and the pest or weed control at 125 g/ha ([9]; 125 g ai/ha, approx. 10 d) was 0%. It also gave a pest or weed control at 500 g/ha ([9]; 500 g ai/ha) of 0%, a pest or weed control at 250 g/ha [10] of 0% and a pest or weed control at 250 g/ha [11] of 30%. It also gave a pest or weed control at 250 g/ha [12] of 0% and a pest or weed control at 250 g/ha (rice (Oryra sativa)) of 20%.
